In PubChem BioAssay AID226 (DTP/NCI, 2004):
Values joined by “and” are separate entries in the source; they are usually repeats but may differ in a detail not shown here. Equal entries are not always repeated. Toxic doses and inconclusive results are not listed.

Tested on: B6C3F1 mice, intracerebral ependymoblastoma, median survival T/C
Experiment: NCI In Vivo Anticancer Drug Screen. Data for tumor model Ependymoblastoma (intracerebral) in B6C3F1 mice
Conditions: endpoint: median survival time, higher = longer survival
Description: The antitumor activity of compounds was measured in mice bearing transplantable tumors. Survival or tumor size were measured and the results are expressed as the measurement made in the treated group (T) divided by the measurement made in the vehicle treated control group (C). The tumor model used in this assay is Ependymoblastoma (intracerebral) in B6C3F1 mice

[1] = dose: 128.0 mg/kg/injection, schedule: Q01DX005 (ip), vehicle: saline with Tween-80
[2] = dose: 32.0 mg/kg/injection, schedule: Q01DX005 (ip), vehicle: Klucel (hydroxypropylcellulose) (HPC)
[3] = dose: 12.5 mg/kg/injection, schedule: Q01DX005 (ip), vehicle: Klucel (hydroxypropylcellulose) (HPC)
[4] = dose: 25.0 mg/kg/injection, schedule: Q01DX005 (ip), vehicle: Klucel (hydroxypropylcellulose) (HPC)
[5] = dose: 4.0 mg/kg/injection, schedule: Q01DX005 (ip), vehicle: saline with Tween-80
[6] = dose: 4.0 mg/kg/injection, schedule: Q01DX005 (ip), vehicle: saline
[7] = dose: 8.0 mg/kg/injection, schedule: Q01DX005 (ip), vehicle: saline with Tween-80
[8] = dose: 8.0 mg/kg/injection, schedule: Q01DX005 (ip), vehicle: saline

Structure (SMILES): CC(C)(C)N1CC1CNC(=O)C(=O)NCC1CN1C(C)(C)C (centres undefined)
- T/C (dose: 1.5 mg/kg/injection, schedule: Q01DX005 (ip), vehicle: saline with Tween-80): 96 % of control
- T/C (dose: 3.0 mg/kg/injection, schedule: Q01DX005 (ip), vehicle: saline with Tween-80): 102 % of control and 112 % of control
- T/C (dose: 3.12 mg/kg/injection, schedule: Q01DX005 (ip), vehicle: saline with Tween-80): 112 % of control
- T/C (dose: 6.0 mg/kg/injection, schedule: Q01DX005 (ip), vehicle: saline with Tween-80): 102 % of control and 114 % of control
- T/C (dose: 6.25 mg/kg/injection, schedule: Q01DX005 (ip), vehicle: saline with Tween-80): 116 % of control
- T/C (dose: 12.0 mg/kg/injection, schedule: Q01DX005 (ip), vehicle: saline with Tween-80): 115 % of control and 119 % of control

Structure (SMILES): Nc1nc2c(c(=O)[nH]1)N(C=O)C(CNc1ccc(C(=O)N[C@@H](CCC(=O)O)C(=O)O)cc1)CN2 (some centres undefined)
- T/C [1]: 101 % of control
- T/C (dose: 128.0 mg/kg/injection, schedule: Q01DX005 (ip), vehicle: saline): 104 % of control
- T/C (dose: 150.0 mg/kg/injection, schedule: Q04DX003 (ip), vehicle: saline): 104 % of control
- T/C (dose: 256.0 mg/kg/injection, schedule: Q01DX005 (ip), vehicle: saline with Tween-80): 96 % of control
- T/C (dose: 256.0 mg/kg/injection, schedule: Q01DX005 (ip), vehicle: saline): 98 % of control
- T/C (dose: 300.0 mg/kg/injection, schedule: Q04DX003 (ip), vehicle: saline): 115 % of control
- T/C (dose: 512.0 mg/kg/injection, schedule: Q01DX005 (ip), vehicle: saline with Tween-80): 101 % of control
- T/C (dose: 512.0 mg/kg/injection, schedule: Q01DX005 (ip), vehicle: saline): 96 % of control
- T/C (dose: 600.0 mg/kg/injection, schedule: Q04DX003 (ip), vehicle: saline): 101 % of control
- T/C (dose: 1200.0 mg/kg/injection, schedule: Q04DX003 (ip), vehicle: saline): 115 % of control

Structure (SMILES): NC(=S)N/N=C/c1ccc(O)cn1
- T/C (dose: 12.0 mg/kg/injection, schedule: Q01DX005 (ip), vehicle: saline): 102 % of control
- T/C (dose: 24.0 mg/kg/injection, schedule: Q01DX005 (ip), vehicle: saline): 107 % of control
- T/C (dose: 48.0 mg/kg/injection, schedule: Q01DX005 (ip), vehicle: saline): 110 % of control
- T/C (dose: 96.0 mg/kg/injection, schedule: Q01DX005 (ip), vehicle: saline): 115 % of control

Structure (SMILES): CN1C(=O)CC(c2ccc(NC(=O)N(CCCl)N=O)cc2)C1=O (centres undefined)
- T/C (dose: 0.75 mg/kg/injection, schedule: Q01DX005 (ip), vehicle: distilled water + Tween-80): 119 % of control
- T/C (dose: 1.5 mg/kg/injection, schedule: Q01DX005 (ip), vehicle: distilled water + Tween-80): 180 % of control
- T/C (dose: 6.0 mg/kg/injection, schedule: Q01DX005 (ip), vehicle: distilled water + Tween-80): 210 % of control
- T/C (dose: 12.0 mg/kg/injection, schedule: Q01DX005 (ip), vehicle: distilled water + Tween-80): 240 % of control

Structure (SMILES): CCCCCN(C)/N=N/c1nc[nH]c1C(N)=O
- T/C (dose: 64.0 mg/kg/injection, schedule: Q01DX005 (ip), vehicle: saline with Tween-80): 153 % of control
- T/C [1]: 160 % of control

Structure (SMILES): CNNCc1ccc(C(=O)NC(C)C)cc1
- T/C [2]: 156 % of control
- T/C (dose: 64.0 mg/kg/injection, schedule: Q01DX005 (ip), vehicle: Klucel (hydroxypropylcellulose) (HPC)): 155 % of control

Structure (SMILES): CCCCCCCC(=O)O[C@H]1[C@H]2[C@@H](CC1(C)C)C(=O)[C@]13O[C@H]1C(=O)[C@]1(CO1)[C@]23C
- T/C (dose: 0.62 mg/kg/injection, schedule: Q01DX005 (ip), vehicle: Klucel (hydroxypropylcellulose) (HPC)): 107 % of control
- T/C (dose: 1.25 mg/kg/injection, schedule: Q01DX005 (ip), vehicle: Klucel (hydroxypropylcellulose) (HPC)): 106 % of control
- T/C (dose: 2.5 mg/kg/injection, schedule: Q01DX005 (ip), vehicle: Klucel (hydroxypropylcellulose) (HPC)): 111 % of control
- T/C (dose: 5.0 mg/kg/injection, schedule: Q01DX005 (ip), vehicle: Klucel (hydroxypropylcellulose) (HPC)): 110 % of control
- T/C (dose: 10.0 mg/kg/injection, schedule: Q01DX005 (ip), vehicle: Klucel (hydroxypropylcellulose) (HPC)): 102 % of control
- T/C (dose: 20.0 mg/kg/injection, schedule: Q01DX005 (ip), vehicle: Klucel (hydroxypropylcellulose) (HPC)): 101 % of control

Structure (SMILES): Nc1ccc(S(=O)(=O)c2ccc(N)cc2)cc1
- T/C (dose: 25.0 mg/kg/injection, schedule: Q01DX005 (ip), vehicle: saline with Tween-80): 122 % of control
- T/C (dose: 50.0 mg/kg/injection, schedule: Q01DX005 (ip), vehicle: saline with Tween-80): 100 % of control
- T/C (dose: 100.0 mg/kg/injection, schedule: Q01DX005 (ip), vehicle: saline with Tween-80): 108 % of control

Structure (SMILES): CCC(=O)OCC1OC(n2cnc3c(=S)nc(N)[nH]c32)C(OC(=O)CC)C1OC(=O)CC (centres undefined)
- T/C (dose: 3.12 mg/kg/injection, schedule: Q01DX005 (ip), vehicle: Klucel (hydroxypropylcellulose) (HPC)): 104 % of control
- T/C (dose: 6.25 mg/kg/injection, schedule: Q01DX005 (ip), vehicle: Klucel (hydroxypropylcellulose) (HPC)): 110 % of control
- T/C [3]: 121 % of control
- T/C [4]: 120 % of control

Structure (SMILES): O=c1[nH]c(=O)n(C2CC(O)C(CO)O2)cc1C(F)(F)F (centres undefined)
- T/C [2]: 102 % of control
- T/C (dose: 128.0 mg/kg/injection, schedule: Q01DX005 (ip), vehicle: Klucel (hydroxypropylcellulose) (HPC)): 97 % of control

Structure (SMILES): Nc1nc([Se])c2ncn(C3OC(CO)C(O)C3O)c2n1 (centres undefined)
- T/C [5]: 113 % of control
- T/C [6]: 102 % of control
- T/C (dose: 8.0 mg/kg/injection, schedule: Q01DX005 (ip), vehicle: Klucel (hydroxypropylcellulose) (HPC)): 106 % of control
- T/C [7]: 109 % of control
- T/C [8]: 95 % of control and 105 % of control and 114 % of control
- T/C (dose: 16.0 mg/kg/injection, schedule: Q01DX005 (ip), vehicle: Klucel (hydroxypropylcellulose) (HPC)): 106 % of control
- T/C (dose: 16.0 mg/kg/injection, schedule: Q01DX005 (ip), vehicle: saline): 102 % of control and 108 % of control
- T/C [2]: 106 % of control
- T/C (dose: 32.0 mg/kg/injection, schedule: Q01DX005 (ip), vehicle: saline): 116 % of control and 121 % of control

Structure (SMILES): OCC1OC(n2cnc3c2NC=NC[C@H]3O)CC1O (some centres undefined)
- T/C (dose: 0.12 mg/kg/injection, schedule: Q#ADX018 (ip), vehicle: saline): 102 % of control
- T/C (dose: 0.25 mg/kg/injection, schedule: Q01DX005 (ip), vehicle: saline): 108 % of control and 113 % of control
- T/C (dose: 0.25 mg/kg/injection, schedule: Q#ADX018 (ip), vehicle: saline): 103 % of control
- T/C (dose: 0.5 mg/kg/injection, schedule: Q01DX005 (ip), vehicle: saline): 100 % of control and 103 % of control
- T/C (dose: 0.5 mg/kg/injection, schedule: Q01DX009 (ip), vehicle: saline): 103 % of control and 116 % of control
- T/C (dose: 0.5 mg/kg/injection, schedule: Q#A X010 (ip), vehicle: saline): 122 % of control
- T/C (dose: 1.0 mg/kg/injection, schedule: Q01DX009 (ip), vehicle: saline): 88 % of control
- T/C (dose: 2.0 mg/kg/injection, schedule: Q01DX009 (ip), vehicle: saline): 91 % of control

Structure (SMILES): OCC1OC(n2cnc3c(SCc4ccccc4)ncnc32)C(O)C1O (centres undefined)
- T/C (dose: 37.5 mg/kg/injection, schedule: Q01DX005 (ip), vehicle: saline with Tween-80): 97 % of control
- T/C (dose: 75.0 mg/kg/injection, schedule: Q01DX005 (ip), vehicle: saline with Tween-80): 106 % of control
- T/C (dose: 150.0 mg/kg/injection, schedule: Q01DX005 (ip), vehicle: saline with Tween-80): 120 % of control

Structure (SMILES): COC(=O)C(Cc1ccc(N(CCCl)CCCl)cc1)N=NNc1nc[nH]c1C(N)=O (centres undefined)
- T/C [5]: 107 % of control
- T/C [7]: 101 % of control and 112 % of control
- T/C (dose: 16.0 mg/kg/injection, schedule: Q01DX005 (ip), vehicle: saline with Tween-80): 104 % of control and 118 % of control
- T/C (dose: 32.0 mg/kg/injection, schedule: Q01DX005 (ip), vehicle: saline with Tween-80): 123 % of control

Structure (SMILES): COc1cc(C[C@H]2c3cc(OC)c(OC)cc3CCN2C)c(Oc2cc3c(cc2OC)-c2c(OC)c(OC)cc4c2[C@H](C3)N(C)CC4)cc1OC
- T/C [3]: 94 % of control
- T/C [4]: 100 % of control
- T/C (dose: 50.0 mg/kg/injection, schedule: Q01DX005 (ip), vehicle: Klucel (hydroxypropylcellulose) (HPC)): 100 % of control and 102 % of control and 105 % of control
- T/C (dose: 100.0 mg/kg/injection, schedule: Q01DX005 (ip), vehicle: Klucel (hydroxypropylcellulose) (HPC)): 102 % of control

Structure (SMILES): COc1cccc2c1C(=O)c1c(O)c3c(c(O)c1C2=O)C[C@@](O)(/C(C)=N/NC(=O)c1ccccc1)C[C@@H]3OC1CC(N)C(O)C(C)O1 (some centres undefined)
- T/C (dose: 2.0 mg/kg/injection, schedule: Q01DX005 (ip), vehicle: saline): 97 % of control
- T/C [6]: 95 % of control
- T/C [8]: 98 % of control
